Source: patent publication US11046686B2, “Thiadiazole IRAK4 compounds” (Gilead Sciences, Inc., priority 2018, dated 2021)
Read-outs that look alike come from different tables or passages of the source.

Experiments:
TNFα = experiment: IRAK4 Monocyte TNFα Cell Based Assay; design: species or system human; details: human monocytes
How it was run: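 TNFα release quantified by HTRF (cryptate/XL665 antibody pair, overnight at RT) after 1 h compound pre-incubation (0.1% DMSO) and 4 h LPS challenge at 50 pg/ml, 37 °C, 5,000 monocytes per well. Signal ratio normalised between unstimulated (0%) and stimulated (100%) controls.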

IRAK4 enzyme = IRAK4 enzyme (Homo sapiens (Human), UniProt Q9NWZ3); experiment: IRAK4 Biochemical Assay (TR-FRET, STK1 KinEASE)
Sequence of IRAK4 enzyme (Q9NWZ3 whole entry): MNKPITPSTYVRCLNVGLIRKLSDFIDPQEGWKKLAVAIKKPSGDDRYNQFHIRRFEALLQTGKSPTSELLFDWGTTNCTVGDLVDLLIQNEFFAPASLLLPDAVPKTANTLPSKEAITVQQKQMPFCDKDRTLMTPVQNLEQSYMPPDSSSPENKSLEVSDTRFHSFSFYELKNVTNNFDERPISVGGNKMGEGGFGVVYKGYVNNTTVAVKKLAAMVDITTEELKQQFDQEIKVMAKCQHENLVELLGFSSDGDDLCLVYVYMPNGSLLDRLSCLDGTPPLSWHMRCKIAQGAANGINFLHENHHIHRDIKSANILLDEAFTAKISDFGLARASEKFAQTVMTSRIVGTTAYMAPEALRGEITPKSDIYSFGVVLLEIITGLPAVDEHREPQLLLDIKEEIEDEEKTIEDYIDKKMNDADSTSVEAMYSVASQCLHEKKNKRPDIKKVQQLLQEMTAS
How it was run: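 TR-FRET endpoint (KinEASE STK1): phosphopeptide detected with cryptate antibody and tracer after EDTA quench, ratio 665/615 nm, normalized to no-inhibitor wells as % inhibition. Reaction: 0.75 nM IRAK4, […] peptide, 500 μM ATP, pH 7.0 HEPES, 120 min room temperature, after 15 min compound preincubation with enzyme.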

[1] = Homo sapiens, Monocyte, second part of Table 2, compounds 33-343, unit inferred, read-out: EC50 MONO TNF HTRF
[2] = Homo sapiens, Monocyte, LPS stimulated, compounds 1-32, read-out: EC50 TNF
[3] = compounds 1-32, read-out: IC50 HTRF
[4] = second part of Table 2, compounds 33-343, unit inferred, read-out: EC50 MONO TNF HTRF
[5] = second part of Table 2, compounds 33-343, unit inferred, read-out: IC50 IRAK4-HTBS

SMILES | EC50 (TNFα; [1]) [nM] | IC50 (IRAK4 enzyme) [nM] | also measured
COC(=O)N[C@@H]1CCN(C(=O)c2nnc(-c3cnc(-c4ccc5cc(C#N)cnn45)cc3NC(C)C)s2)C1 [Example 44, methyl (R)-(1-(5-(6-(3-cyanopyrrolo[1,2-b]pyridazin-7-yl)-4-(isopropylamino)pyridin-3-yl)-1,3,4-thiadiazole-2-carbonyl)pyrrolidin-3-yl)carbamate] | 27.4 | 0.53 | 
C[C@]1(O)CCN(c2nnc(-c3cnc(-c4ccc5cc(C#N)cnn45)cc3NC3COC3)s2)C[C@@H]1F [Example 207, 7-(5-(5-((3S,4S)-3-fluoro-4-hydroxy-4-methylpiperidin-1-yl)-1,3,4-thiadiazol-2-yl)-4-(oxetan-3-ylamino)pyridin-2-yl)pyrrolo[1,2-b]pyridazine-3-carbonitrile] | 7.9 | 0.69 | 
CC(=O)Nc1nnc(-c2cnc(-c3ccc4cc(C#N)cnn34)cc2NC(C)C)s1 [Example 19, N-(5-(6-(3-cyanopyrrolo[1,2-b]pyridazin-7-yl)-4-(isopropylamino)pyridin-3-yl)-1,3,4-thiadiazol-2-yl)acetamide] |  |  | EC50 (TNFα; [2]): 5870 nM; IC50 (IRAK4 enzyme; [3]): 1 nM
CC(C)Nc1cc(-c2ccc3cc(C#N)cnn23)ncc1-c1nnc(N2CC(O)(C(F)(F)F)C2)s1 [Example 297, 7-(5-(5-(3-hydroxy-3-(trifluoromethyl)azetidin-1-yl)-1,3,4-thiadiazol-2-yl)-4-(isopropylamino)pyridin-2-yl)pyrrolo[1,2-b]pyridazine-3-carbonitrile] | 10 | 0.67 | 
CC(C)Nc1cc(-c2ccc3cc(C#N)cnn23)ncc1-c1nnc(N2CC(C)(O)C2)s1 [Example 286, 7-(5-(5-(3-hydroxy-3-methylazetidin-1-yl)-1,3,4-thiadiazol-2-yl)-4-(isopropylamino)pyridin-2-yl)pyrrolo[1,2-b]pyridazine-3-carbonitrile] | 21.4 | 0.63 | 
N#Cc1cnn2c(-c3cc(NC4CCOCC4)c(-c4nnc(N5CC6CCC(C5)O6)s4)cn3)ccc2c1 [Compound 256, 7-(5-(5-(8-oxa-3-azabicyclo[3.2.1]octan-3-yl)-1,3,4-thiadiazol-2-yl)-4-((tetrahydro-2H-pyran-4-yl)amino)pyridin-2-yl)pyrrolo[1,2-b]pyridazine-3-carbonitrile] | 4.6 | 0.68 | 
CC(=O)N[C@@H]1CCN(c2nnc(-c3cnc(-c4ccc5cc(C#N)cnn45)cc3NC(C)C)s2)C[C@H]1O [Example 65, N-((3R,4R)-1-(5-(6-(3-cyanopyrrolo[1,2-b]pyridazin-7-yl)-4-(isopropylamino)pyridin-3-yl)-1,3,4-thiadiazol-2-yl)-3-hydroxypiperidin-4-yl)acetamide] | 10.6 | 0.3 | 
CC(C)Nc1cc(-c2ccc3cc(C#N)cnn23)ncc1-c1nnc(N2CC[C@](C)(O)[C@@H](F)C2)s1 [Example 190, 7-(5-(5-((3S,4S)-3-fluoro-4-hydroxy-4-methylpiperidin-1-yl)-1,3,4-thiadiazol-2-yl)-4-(isopropylamino)pyridin-2-yl)pyrrolo[1,2-b]pyridazine-3-carbonitrile] | 11.7 | 1.39 | 
CC(=O)NC12C3C4C1C1C2C3C41c1nnc(-c2cnc(-c3ccc4cc(C#N)cnn34)cc2NC(C)C)s1 (stereo not drawn) [Example 197, N-(4-(5-(6-(3-cyanopyrrolo[1,2-b]pyridazin-7-yl)-4-(isopropylamino)pyridin-3-yl)-1,3,4-thiadiazol-2-yl)cuban-1-yl)acetamide] | 32.9 | 1.57 | 
CC(=O)N[C@H]1CCN(c2nnc(-c3cnc(-c4ccc5cc(C#N)cnn45)cc3NC3(C)COC3)s2)CC1(F)F (single isomer, unassigned; isomer 2) [147 Isomer 2] |  |  | EC50 (TNFα; [4]): 24.2 nM; IC50 (IRAK4 enzyme; [5]): 0.62 nM
CC(C)Nc1cc(-c2ccc3cc(C#N)cnn23)ncc1-c1nnc(NC[C@@H](F)C(C)(C)O)s1 [Example 27, (R)-7-(5-(5-((2-fluoro-3-hydroxy-3-methylbutyl)amino)-1,3,4-thiadiazol-2-yl)-4-(isopropylamino)pyridin-2-yl)pyrrolo[1,2-b]pyridazine-3-carbonitrile] |  |  | EC50 (TNFα; [2]): 67 nM; IC50 (IRAK4 enzyme; [3]): 1 nM
CC(C)Nc1cc(-c2ccc3cc(C#N)cnn23)ncc1-c1nnc(CCC(C)(C)O)s1 [Example 31, 7-(5-(5-(3-hydroxy-3-methylbutyl)-1,3,4-thiadiazol-2-yl)-4-(isopropylamino)pyridin-2-yl)pyrrolo[1,2-b]pyridazine-3-carbonitrile] |  |  | EC50 (TNFα; [2]): 5 nM; IC50 (IRAK4 enzyme; [3]): < 1 nM
CC(=O)N[C@@H]1CCN(c2nnc(-c3cnc(-c4ccc5cc(C#N)cnn45)cc3NC(C)C)s2)CC1(F)F [Example 168, (R)-N-(1-(5-(6-(3-cyanopyrrolo[1,2-b]pyridazin-7-yl)-4-(isopropylamino)pyridin-3-yl)-1,3,4-thiadiazol-2-yl)-3,3-difluoropiperidin-4-yl)acetamide] | 8.4 | 0.65 | 
CC(=O)NC1[C@@H]2COC[C@H]1CN(c1nnc(-c3cnc(-c4ccc5cc(C#N)cnn45)cc3NC(C)C)s1)C2 (stereo partly drawn) [Example 193, N-((1R,5S)-7-(5-(6-(3-cyanopyrrolo[1,2-b]pyridazin-7-yl)-4-(isopropylamino)pyridin-3-yl)-1,3,4-thiadiazol-2-yl)-3-oxa-7-azabicyclo[3.3.1]nonan-9-yl)acetamide] | 4.1 | 0.68 | 
CC(C)Nc1cc(-c2ccc3cc(C#N)cnn23)ncc1-c1nnc(N2CC3CCC(C3)C2)s1 [Example 291, 7-(5-(5-(3-azabicyclo[3.2.1]octan-3-yl)-1,3,4-thiadiazol-2-yl)-4-(isopropylamino)pyridin-2-yl)pyrrolo[1,2-b]pyridazine-3-carbonitrile] | 59.3 | 1.78 | 
CC(=O)NC12CCC(c3nnc(-c4cnc(-c5ccc6cc(C#N)cnn56)cc4NC4COC4)s3)(CC1)CC2 [Example 70, N-(4-(5-(6-(3-cyanopyrrolo[1,2-b]pyridazin-7-yl)-4-(oxetan-3-ylamino)pyridin-3-yl)-1,3,4-thiadiazol-2-yl)bicyclo[2.2.2]octan-1-yl)acetamide] | 8.8 | 0.58 | 
CC(=O)N[C@@H]1CCN(c2nnc(-c3cnc(-c4ccc5cc(C#N)cnn45)cc3N[C@H](C)C#N)s2)CC1(F)F [Example 151, N-((R)-1-(5-(4-(((R)-1-cyanoethyl)amino)-6-(3-cyanopyrrolo[1,2-b]pyridazin-7-yl)pyridin-3-yl)-1,3,4-thiadiazol-2-yl)-3,3-difluoropiperidin-4-yl)acetamide] | 5 | 1.03 | 
CC(=O)N[C@H]1CC[C@H](c2nnc(-c3cnc(-c4ccc5cc(C#N)cnn45)cc3NCC#N)s2)CC1 [Example 20, N-((1r,4r)-4-(5-(4-((cyanomethyl)amino)-6-(3-cyanopyrrolo[1,2-b]pyridazin-7-yl)pyridin-3-yl)-1,3,4-thiadiazol-2-yl)cyclohexyl)acetamide] |  |  | EC50 (TNFα; [2]): 6 nM; IC50 (IRAK4 enzyme; [3]): < 1 nM
CC(C)Nc1cc(-c2ccc3cc(C#N)cnn23)ncc1-c1nnc(N2C[C@H]3CC[C@@H](C2)[C@@H]3NC(=O)[C@H](C)O)s1 [Example 91, (S)-N-((1R,5S,8s)-3-(5-(6-(3-cyanopyrrolo[1,2-b]pyridazin-7-yl)-4-(isopropylamino)pyridin-3-yl)-1,3,4-thiadiazol-2-yl)-3-azabicyclo[3.2.1]octan-8-yl)-2-hydroxypropanamide] |  |  | EC50 (TNFα; [4]): 3.9 nM; IC50 (IRAK4 enzyme; [5]): 0.93 nM
CC(C)Nc1cc(-c2ccc3cc(C#N)cnn23)ncc1-c1nnc(N2CCC3(CC2)COC3)s1 [Example 4, 7-(5-(5-(2-oxa-7-azaspiro[3.5]nonan-7-yl)-1,3,4-thiadiazol-2-yl)-4-(isopropylamino)pyridin-2-yl)pyrrolo[1,2-b]pyridazine-3-carbonitrile] |  |  | EC50 (TNFα; [2]): 23 nM; IC50 (IRAK4 enzyme; [3]): 1 nM
CC(=O)N[C@H]1CCN(c2nnc(-c3cnc(-c4ccc5cc(C#N)cnn45)cc3N[C@H](C)C#N)s2)CC1(F)F [Example 152, N-((S)-1-(5-(4-(((R)-1-cyanoethyl)amino)-6-(3-cyanopyrrolo[1,2-b]pyridazin-7-yl)pyridin-3-yl)-1,3,4-thiadiazol-2-yl)-3,3-difluoropiperidin-4-yl)acetamide] | 10.7 | 0.58 | 
CC(C)Nc1cc(-c2ccc3cc(C#N)cnn23)ncc1-c1nnc(C(=O)N2CC[C@@H](O)C2)s1 [Example 17, (R)-7-(5-(5-(3-hydroxypyrrolidine-1-carbonyl)-1,3,4-thiadiazol-2-yl)-4-(isopropylamino)pyridin-2-yl)pyrrolo[1,2-b]pyridazine-3-carbonitrile] |  |  | EC50 (TNFα; [2]): 55 nM; IC50 (IRAK4 enzyme; [3]): 1 nM
CC(=O)NC1CCC2(CC1)CN(c1nnc(-c3cnc(-c4ccc5cc(C#N)cnn45)cc3NC3CCOCC3)s1)C2 [Example 79, N-(2-(5-(6-(3-cyanopyrrolo[1,2-b]pyridazin-7-yl)-4-((tetrahydro-2H-pyran-4-yl)amino)pyridin-3-yl)-1,3,4-thiadiazol-2-yl)-2-azaspiro[3.5]nonan-7-yl)acetamide] | 2.6 | 0.48 | 
CC(=O)N[C@H]1CCCN(c2nnc(-c3cnc(-c4ccc5cc(C#N)cnn45)cc3NC(C)C)s2)C1 [Example 299, (S)-N-(1-(5-(6-(3-cyanopyrrolo[1,2-b]pyridazin-7-yl)-4-(isopropylamino)pyridin-3-yl)-1,3,4-thiadiazol-2-yl)piperidin-3-yl)acetamide] | 41.6 | 0.52 | 
